Data set [1] concerns MV4;11 WT cells. In words: CellTiter-Glo cell viability, WT MV4;11 cells. In kind it is cell-based. The settings on record: 24 h, CTG. How it is done:
(§1) CellTiter-Glo cell viability and CytoTox-Fluor cell death assays. Cells were plated (2,000 cells per well) in white, 384-well clear-bottom plates (Corning) using an EL406 Microplate Washer/Dispenser (BioTek) in 25 μL final volume of medium. To the cell plates were added compounds at different concentrations using a pintool (CyBio) and the plates were allowed to incubate in the incubator. After incubation for indicated times, CytoTox-Fluor reagent (Promega, G9262) was added according to the manufacturer's protocol. The assay plates were then incubated for another 30 min before fluorescence was recorded using a Cytation 5 Cell Imaging Multi-Mode Reader (BioTek). Next, CellTiter-Glo reagent (Promega, G7573) was subsequently added to the assay plates following the manufacturer's protocol. Assay plates were shaken on an orbital shaker for 2 min and incubated at 25° C. for 10 min. Luminescence was then read using a Cytation 5 Cell Imaging Multi-Mode Reader (BioTek).
For orientation: In ATP-based viability assays light output follows the ATP content of the culture.

A short description of data set [2]: Stability in cell culture supernatants. It counts as in vitro ADME.
Data set [3] concerns the target recombinant human PEPD (Homo sapiens (Human), UniProt P12955). In words: PEPD substrate assay (Ala-Pro cleavage, L-alanine assay kit). In kind it is biochemical. The settings on record: for IC50: 50 nM recombinant human PEPD, Ala-Pro 40 μM, 25° C. How it is done:
Protein purification. Human prolidase (PEPD) was generated and purified. XPNPEP1 in pET15-b containing a 6× His tag was expressed in E. coli Rosetta DE3 cells.
Substrate assays. For the PEPD assay, a solution of substrate (Ala-Pro) was prepared in DMSO. 24 μL of 50 nM recombinant human PEPD were added to a 384-well, black, clear-bottom plate (Corning) with 1 μL dipeptide Ala-Pro (final conc. 40 μM). […] For the AMC reporter assays, experiments were performed with cell lysates. 5 μL solution of substrate (2.5 mM Ala-AMC) was added the mixture of 10 μL HEK293T cell lysates (2.5 mg/ml) and 10 μL of indicated compounds in a 384-well, black, clear-bottom plate (Corning) to initiate the reaction. Substrate cleavage was measured as increasing fluorescence signal (Ex/Em: 380/460 nm) recorded at 25° C. for 20 mins. […] H-Lys(abz)-Pro-Pro-pNA substrate was added to a final concentration of 100 μM, and fluorescence was monitored (Ex/Em: 320/410) for 60 mins.

In data set [4] the target is XPNPEP1 (Homo sapiens (Human), UniProt Q9NQW7). Kind of data set: XPNPEP1 substrate assay (H-Lys(abz)-Pro-Pro-pNA). The settings on record: for IC50: XPNPEP1 3.5 nM, substrate 100 μM, 60 mins. It counts as biochemical. How it is done: Protein purification. Human prolidase (PEPD) was generated and purified. XPNPEP1 in pET15-b containing a 6× His tag was expressed in E. coli Rosetta DE3 cells. Cells were induced with IPTG for 16 h at 37° C., pelleted and lysed in buffer A (20 mM Tris-HCl (pH 7.9), 500 mM NaCl, and 10% (v/v) glycerol) by sonication. Affinity purification chromatography was performed using TALON resin and according to previously published protocols (Li et al., 2008).
Sequence of XPNPEP1 (Q9NQW7 whole entry): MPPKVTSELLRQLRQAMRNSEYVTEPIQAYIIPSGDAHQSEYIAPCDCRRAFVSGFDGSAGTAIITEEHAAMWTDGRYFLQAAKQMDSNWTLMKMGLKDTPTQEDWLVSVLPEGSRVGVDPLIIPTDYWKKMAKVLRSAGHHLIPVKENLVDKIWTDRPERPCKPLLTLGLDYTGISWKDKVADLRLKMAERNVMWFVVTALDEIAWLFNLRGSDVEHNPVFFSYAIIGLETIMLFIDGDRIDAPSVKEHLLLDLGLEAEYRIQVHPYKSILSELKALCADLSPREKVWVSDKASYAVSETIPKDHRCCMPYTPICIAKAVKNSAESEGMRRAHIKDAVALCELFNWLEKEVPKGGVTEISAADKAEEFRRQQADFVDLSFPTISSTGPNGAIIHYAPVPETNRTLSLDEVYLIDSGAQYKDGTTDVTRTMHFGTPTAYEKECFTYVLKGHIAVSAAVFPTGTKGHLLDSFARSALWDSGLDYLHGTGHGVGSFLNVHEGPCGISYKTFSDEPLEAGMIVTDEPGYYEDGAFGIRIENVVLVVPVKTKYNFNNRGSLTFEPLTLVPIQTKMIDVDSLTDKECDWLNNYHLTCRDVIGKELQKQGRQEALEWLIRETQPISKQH
Substrate assays. For the PEPD assay, a solution of substrate (Ala-Pro) was prepared in DMSO. 24 μL of 50 nM recombinant human PEPD were added to a 384-well, black, clear-bottom plate (Corning) with 1 μL dipeptide Ala-Pro (final conc. 40 μM). Alanine liberated was measured as increasing fluorescence signal (Resorufin, Ex/Em: 535/587 nm) recorded at 25° C. using an L-alanine assay kit (Abcam, ab83394) at 25° C. according to manufacturer's instructions. For the AMC reporter assays, experiments were performed with cell lysates. 5 μL solution of substrate (2.5 mM Ala-AMC) was added the mixture of 10 μL HEK293T cell lysates (2.5 mg/ml) and 10 μL of indicated compounds in a 384-well, black, clear-bottom plate (Corning) to initiate the reaction. Substrate cleavage was measured as increasing fluorescence signal (Ex/Em: 380/460 nm) recorded at 25° C. for 20 mins. For XPNPEP1 enzymes (XPNPEP1 3.5 nM) were plated on a black 384-well clear bottom plate and treated with the indicated doses of compounds. H-Lys(abz)-Pro-Pro-pNA substrate was added to a final concentration of 100 μM, and fluorescence was monitored (Ex/Em: 320/410) for 60 mins.

Data set [5] deals with MV4;11 CASP1-/- cells. In words: CellTiter-Glo cell viability, CASP1-/- MV4;11 cells. It counts as cell-based. Particulars: Homo sapiens, MV4-11; 24 h, CTG. How it is done:
Cloning. CASP1^−/− MV4;11 cells^12; CARD8^−/− MV4;11, THP-1, OCI-AML2 cells^14; DPP8/9^−/− THP-1^12; PEPD^−/−, XPNPEP1^−/−, PEPD XPNPEP1^−/− THP-1 cells were generated. Plasmids for CARD8 variants, CASP1, GSDMD, dTAG-CARD8^ZUC were cloned as described previously (Hollingsworth et al., 2021; Johnson et al., 2018; Sharif et al., 2021).
as §1

The subject of data set [6] is OCI-AML2 cells. Kind of data set: Propidium iodide uptake, OCI-AML2 cells. Particulars: 6.25 μM, compared to CQ31. It counts as cell-based. How it is done:
Propidium iodideflux analysis. 2×10^4 MV4;11 or OCI-AML2 cells were plated in 384-well, black, clear-bottom plate (Corning) in RPMI medium. Cells were then treated as indicated and propidium iodide (PI) was added at a final concentration of 10 μM. PI fluorescence was measured at (Ex/Em: 535/617 nm) recorded at 37° C. every 5 mins in a Cytation 5 Cell Imaging Multi-Mode Reader (BioTek). The obtained measurements were baseline corrected to vehicle/DMSO and normalized to maximum response.

The subject of data set [7] is N/TERT-1 keratinocytes. In words: Cell viability of N/TERT-1 keratinocytes (NLRP1 inflammasome). In kind it is cell-based, human. The settings on record: VbP 10 μM, CQ compounds 20 μM, 24 h, CTG. How it is done:
Cell Culture. HEK293T, THP-1, RAW264.7 cells were purchased from ATCC. MV4;11, OCI-AML2 cells were purchased from DSMZ. N/TERT1 cells were a gift from the Rheinwald Lab (Dickson et al., 2000). HEK293T and RAW264.7 cells were grown in Dulbecco's Modified Eagle's Medium (DMEM) with L-glutamine and 10% fetal bovine serum (FBS). N/TERT1 cells were grown in Keratinocyte serum free medium (KSFM) supplemented with 1× penicillin/streptomycin, bovine pituitary extract (25 μg/ml) and epidermal growth factor (EGF) (0.2 ng/ml). All other cell lines were grown in Roswell Park Memorial Institute (RPMI) medium 1640 with L-glutamine and 10% fetal bovine serum (FBS). All cells were grown at 37° C. in a 5% CO2 atmosphere incubator. Cell lines were regularly tested for mycoplasma using the MycoAlert™ Mycoplasma Detection Kit (Lonza).
as §1

The subject of data set [8] is primary bone marrow-derived macrophages (BMDMs) and mouse RAW264.7 cells. Kind of data set: LDH release and GSDMD cleavage in BMDMs and RAW264.7 cells (mouse NLRP1). In kind it is cell-based. The settings on record: VbP 10 μM, CQ31/CQ80 20 μM, 24 h. How it is done: Mouse BMDM isolation and culture. Bone marrow was harvested from the femurs and tibias of 7-12-week-old C57BL/6J mice. Briefly, femurs and tibias were harvested from mice and crushed with a mortar and pestle in cold 1×PBS supplemented with 2.5% FBS. The mixture was passed through a 70-μm nylon cell strainer. RBCs were lysed for 4-5 min on ice in 1×RBC lysis buffer (Biolegend) and cells were centrifuged at 300×g for 5 min at 4° C. The cell pellet was washed in cold 1×PBS supplemented with 2.5% FBS before being passed again through in a 70-μm nylon cell strainer and counted. Counted cells were plated on non-tissue culture 10-cm plates at 5-10×10^6 cells per plate in DMEM supplemented with 10% FBS and 15-20% L-cell media. Cells were incubated at 37° C. for 6 days before replating and assaying as indicated.
LDH cytotoxicity and immunoblotting assays. HEK293T cells were transiently transfected and treated with inhibitors as indicated. MV4;11, OCI AML2, THP-1, and RAW264.7 cells were plated in 12-well culture plates at 5×10^5 cells/well and treated as indicated. Supernatants were analyzed for LDH activity using the Pierce LDH Cytotoxicity Assay Kit (Life Technologies). LDH activity was quantified relative to a lysis control where cells were lysed in 80 μL of a 9% Triton X-100 solution. For immunoblotting, cells were washed 2× in PBS (pH=7.4), resuspended in PBS, and lysed by sonication. Protein concentrations were determined and normalized using the DCA Protein Assay kit (Bio-Rad). The samples were separated by SDS-PAGE, immunoblotted, and visualized using the Odyssey Imaging System (Li-Cor).
A general note: LDH leaks from cells whose membrane has failed.

The text below walks through data of patent publication US20250368624A1, “M24B AMINOPEPTIDASE INHIBITORS FOR CARD8 INFLAMMASOME ACTIVATION” (Memorial Sloan-Kettering Cancer Center, priority 2022, published 2025).

Sequence of recombinant human PEPD (P12955 whole entry): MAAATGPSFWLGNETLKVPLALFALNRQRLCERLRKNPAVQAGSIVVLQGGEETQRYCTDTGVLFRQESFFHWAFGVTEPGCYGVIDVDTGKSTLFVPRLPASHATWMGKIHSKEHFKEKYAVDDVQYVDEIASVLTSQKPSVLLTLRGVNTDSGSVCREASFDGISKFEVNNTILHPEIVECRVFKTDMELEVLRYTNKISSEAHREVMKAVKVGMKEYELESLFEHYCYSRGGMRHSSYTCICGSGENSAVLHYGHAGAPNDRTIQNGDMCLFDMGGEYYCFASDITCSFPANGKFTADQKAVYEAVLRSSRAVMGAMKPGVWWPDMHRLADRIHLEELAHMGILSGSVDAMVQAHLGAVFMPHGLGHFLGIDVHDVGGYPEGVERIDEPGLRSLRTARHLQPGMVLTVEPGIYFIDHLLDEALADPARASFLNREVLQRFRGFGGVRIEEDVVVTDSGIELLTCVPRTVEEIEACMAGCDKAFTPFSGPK

On to `CC(C)C[C@@H](N)[C@H](O)C(=O)N1CCC[C@H]1C(=O)OC(C)(C)C` [CQ34, tert-butyl ((2S,3R)-3-amino-2-hydroxy-5-methylhexanoyl)-L-prolinate], for which, in data set [1], the “cytotoxicity to MV4;11 cells (in words)” value is “slightly more toxic”. Further, the “stability in cell culture supernatants (in words)” value in data set [2] was “considerably more stable than CQ31 or CQ94”. The “time after which completely hydrolyzed” value in data set [2] (cell culture supernatants) is reported as at most 8 h. Further, the “PEPD inhibition (in words)” value in data set [3] was “inhibited PEPD and XPNPEP1 inhibitors similarly”. For the same compound, in data set [4], the “XPNPEP1 inhibition (in words)” value was “inhibited PEPD and XPNPEP1 inhibitors similarly”.

`COC(=O)[C@@H](NC(=O)[C@@H]1CCCN1C(=O)[C@@H](O)[C@H](N)CC(C)C)C(C)C` [CQ78, Methyl ((2S,3R)-3-amino-2-hydroxy-5-methylhexanoyl)-L-prolyl-L-valinate]: the IC50 in data set [5] is above 20 µM; in data set [1] (Homo sapiens, MV4-11), 0.45 µM; in data set [3], 1.2 µM; in data set [4], 41 µM. Besides, the “lytic cell death by uptake of propidium iodide” value in data set [6] is listed as “more rapid lytic cell death”.

On to `CC(C)C[C@H](NC(=O)[C@@H]1CCCN1C(=O)[C@@H](O)[C@H](N)CC(C)C)C(=O)NCCc1ccccc1` [CQ116, (S)-1-((2S,3R)-3-amino-2-hydroxy-5-methylhexanoyl)-N—((S)-4-methyl-1-oxo-1-(phenethylamino)pentan-2-yl)pyrrolidine-2-carboxamide], for which, in data set [2], the “stability in cell culture supernatants (in words)” value is recorded as “completely stable”. In addition, the IC50 in data set [3] was 5.7 µM; in data set [4], 3.4 µM.

On to `CC(C)[C@H](N)C(=O)N1CCC[C@H]1B(O)O` [VbP, Val-boroPro, reference compound], for which the “cell death in N/TERT-1 keratinocytes” value in data set [7] is recorded as “induced cell death”. Further, the “pyroptosis (LDH release and GSDMD cleavage)” value in data set [8] is on record as “induced pyroptosis”.

One may read the IC50 as the concentration at which inhibition is half-maximal.
